Reference: article PMC5548696 (Bioorganic & medicinal chemistry letters, 2017)
One block for each molecule: values may come before it.

Key:
Recombinant human ENGase = target: T1, Recombinant human ENGase (Homo sapiens, UniProt Q8NFI3); format: biochemical; conditions: 100 μM drug concentration; first round, 13 drugs
T1 sequence (Q8NFI3 1-743): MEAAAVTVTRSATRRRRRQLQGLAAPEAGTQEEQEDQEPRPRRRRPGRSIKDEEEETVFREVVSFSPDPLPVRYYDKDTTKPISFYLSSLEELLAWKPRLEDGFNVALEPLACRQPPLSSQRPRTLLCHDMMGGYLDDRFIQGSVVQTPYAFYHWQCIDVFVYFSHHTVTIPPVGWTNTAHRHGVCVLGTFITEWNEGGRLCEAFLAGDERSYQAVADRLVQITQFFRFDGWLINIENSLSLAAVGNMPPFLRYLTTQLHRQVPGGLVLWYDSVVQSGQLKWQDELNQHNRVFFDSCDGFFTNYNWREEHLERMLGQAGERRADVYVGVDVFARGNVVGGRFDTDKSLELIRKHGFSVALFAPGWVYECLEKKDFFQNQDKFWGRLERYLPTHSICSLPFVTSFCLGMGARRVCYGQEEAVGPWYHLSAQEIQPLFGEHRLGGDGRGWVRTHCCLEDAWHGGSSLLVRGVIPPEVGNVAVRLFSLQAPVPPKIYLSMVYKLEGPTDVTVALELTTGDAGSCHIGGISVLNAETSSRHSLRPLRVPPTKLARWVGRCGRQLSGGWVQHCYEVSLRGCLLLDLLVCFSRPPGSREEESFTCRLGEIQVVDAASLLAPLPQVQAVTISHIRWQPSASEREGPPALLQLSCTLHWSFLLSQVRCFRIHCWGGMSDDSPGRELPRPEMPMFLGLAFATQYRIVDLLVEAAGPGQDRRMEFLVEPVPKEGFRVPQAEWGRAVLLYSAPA

H+/K+ ATPase = conditions: cited from earlier work
human ENGase = conditions: read-out: IC50, human ENGase inhibitors; earlier reports; cited from earlier work

inhibition of ENGase enzyme activity, preliminary ENGase inhibitor screening (Recombinant human ENGase): inhibited ENGase enzyme activity
Molecule: Cc1c(OCC(F)(F)F)ccnc1C[S+]([O-])c1nc2ccccc2[nH]1 (stereo not drawn) [Lansoprazole]

Molecule: COCCCOc1ccnc(C[S+]([O-])c2nc3ccccc3[nH]2)c1C (stereo not drawn) [Rabeprazole]
target affinity (H+/K+ ATPase): ~ 70 nM

Molecule: Man9GlcNAc-thiazoline
IC50 (human ENGase): 420 nM
